Measured values from paper PMC11243320, “Tailoring Fibroblast-Activation Protein Targeting for Theranostics: A Comparative Preclinical Evaluation of the ^68Ga- and ^177Lu-Labeled Monomeric and Dimeric Fibroblast-Activation Protein Inhibitors DOTA.SA.FAPi and DOTAGA.(SA.FAPi)2” (Molecules, 2024).

System: CAFs
Assay: Internalization studies in CAFs
Format: cell-based, human
Conditions: 37 °C
Protocol: For saturation studies, CAFs were incubated with increasing concentrations of the radiotracers (0.1–10 nM). For internalization studies, approximately 2.5 pmol of the radiotracers were added to CAFs followed by incubation for 15, 30, 60, 90, 120, 180 and 240 min for the ^68Ga-labeled or 30, 60, 120, 240 and 360 min for the ^177Lu-labeled radiotracers at 37 °C, 5% CO2. For the externalization studies, approximately 2.5 pmol of the ^177Lu-labeled radiotracers were added to CAFs followed by incubation for 2 h at 37 °C, 5% CO2. Afterward, the amount of the externalized activity from the CAFs was determined at 0, 10, 20, 30, 60, 120, 240, and 1440 min (Supplemental Data).
Saturation Binding Studies […]
for 0.5, 1, 2, 4 and 6 h at 37 °C, 5% CO2 for the 177Lu-labeled tracers. […] The radioactivity of the culture medium, the receptor bound, and the internal-ized fractions were measured in a γ-counter. […]
The radioactivity of the culture medium, the receptor bound , the internalized and the externalized fractions were measured in a γ -counter. The externalized fraction of radioactivity was ex-pressed as the percentage of the total internalized amount. […]

| Compound | Total cell associated uptake (% of total applied radioactivity) (4 h) | Total cell associated uptake (% of total applied radioactivity) (6 h) |
| --- | --- | --- |
| N#C[C@@H]1CC(F)(F)CN1C(=O)CNC(=O)c1ccnc2ccc(OCCCCNc3c(NCCNC(=O)CN4CCN(CC(=O)[O-])CCN(CC(=O)[O-])CCN(CC(=O)[O-])CC4)c(=O)c3=O)cc12.[68Ga+3] [[^68Ga]Ga-DOTA.SA.FAPi] | 21.9 ± 1.2% |  |
| N#C[C@@H]1CC(F)(F)CN1C(=O)CNC(=O)c1ccnc2ccc(OCCCCNc3c(NCCNC(=O)CN4CCN(CC(=O)[O-])CCN(CC(=O)[O-])CCN(CC(=O)[O-])CC4)c(=O)c3=O)cc12.[177Lu+3] [[^177Lu]Lu-DOTA.SA.FAPi] |  | 21.1 ± 1.1% |
